Key:
[1] = system: translational stop codon read-through, human SMN2 open reading frame-luciferase; experiment: Translational read-through luciferase reporter assay (luciferase preceded by the open reading frame of the human SMN2 gene); assay type: cell-based
Excerpt: This assay was similar in design to that described in WO 01/44516 A2. This was a cell-based luciferase reporter assay designed to detect translational read-through via insertion of a translational stop codon within the coding sequence that includes luciferase. In the presence of compounds that promote read-through of translational stop codons, active luciferase was produced and detected via chemiluminescence. Compounds of the invention typically were active in three versions of this assay: luciferase reporter containing a UGA stop codon, luciferase reporter containing a UAG stop codon, which is the first stop codon downstream of the improper splice junction between exons 6 and 8 in the human SMN2 transcript, and luciferase preceded by the open reading frame of the human SMN2 gene.

[2] = system: SMN2-linked luciferase-reporter gene construct; experiment: SMN Splice Reporter Assay (SMN2-linked luciferase reporter); assay type: cell-based; settings: for EC50: cervical carcinoma cell lines, SMN2 splice luciferase reporter; for Fold Increase: fold-increase of luciferase over baseline reading of transformed cells without any test compound
Summary of the method: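 Cervical carcinoma cells carrying an SMN2-luciferase splicing reporter, in-frame only with exon 7 inclusion, were treated with compound. Luciferase activity reported as fold increase over untreated transformed cells, with EC50 derived.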

Structure (SMILES) | EC50 [1] [nM] | maximal fold induction [1] | EC50 [2] [nM] | Fold Increase [2] | melting point [°C]
COc1ccc2c(c1)C(=O)N(c1ccc3nccnc3c1)C2 [Example 120791] | 641 | 1.91 | 70 | 1.372 | 
COc1ccc2c(c1)C(=O)N(c1ccc3c(ccn3C)n1)C2 [Example 41, 6-methoxy-2-(1-methyl-1H-pyrrolo[3,2-b]pyridin-5-yl)isoindolin-1-one] |  |  |  |  | 230 to 234
CC(C)Cc1ccc2c(c1)C(=O)N(c1ccc3c(ccn3C)c1)C2 [Example 12, 6-isobutyl-2-(1-methyl-1H-indol-5-yl)isoindolin-1-one] |  |  |  |  | 193 to 194
COc1ccc2c(c1)C(=O)N(c1ccc3ncccc3c1)C2 [Example 32, 6-methoxy-2-(quinolin-6-yl)isoindolin-1-one] |  |  |  |  | 194 to 197
Nc1ccc2c(c1)C(=O)N(c1ccc3ccsc3c1)C2 [Example 29, 6-amino-2-(benzo[b]thiophen-6-yl)isoindolin-1-one] |  |  |  |  | 233 to 236
COc1ccc2c(c1)C(=O)N(c1ccc3ccoc3c1)C2 [Example 118740] | 220 | 1.67 | 22 | 1.388 | 
CCOc1ccc2c(c1)C(=O)N(c1ccc3sccc3c1)C2 [Example 27, 2-(benzo[b]thiophen-5-yl)-6-ethoxyisoindolin-1-one] |  |  |  |  | 127 to 129
COc1cc2c(cc1OC)C(=O)N(c1ccc3ccn(C)c3c1)C2 [Example 120594] | 19400 | 2.08 | 2060 | 1.561 | 
CCC(C)c1ccc2c(c1)C(=O)N(c1ccc3c(ccn3C)c1)C2 (centres unmarked) [Example 15, 6-sec-butyl-2-(1-methyl-1H-indol-5-yl)isoindolin-1-one] |  |  |  |  | 146 to 147
COc1ccc2c(c1)C(=O)N(c1ccc3c(ccn3C)c1)C2 [Example 1, 6-methoxy-2-(1-methyl-1H-indol-5-yl)isoindolin-1-one] |  |  |  |  | 193 to 197
COc1ccc2c(c1)C(=O)N(c1ccc3c(c1)N(C)CCO3)C2 [Example 119867] | 676 | 2.04 | 117 | 1.495 | 
CCCCc1ccc2c(c1)C(=O)N(c1ccc3c(ccn3C)c1)C2 [Example 13, 6-butyl-2-(1-methyl-1H-indol-5-yl)isoindolin-1-one] |  |  |  |  | 167 to 168
CC(C)n1ccc2cc(N3Cc4ccc(Cl)cc4C3=O)ccc21 [Example 125094] |  | 1.16 | 9 | 1.256 | 
Cn1ccc2cc(N3Cc4ccc(Br)cc4C3=O)ccc21 [Example 119521] | 2960 | 1.56 | 96 | 1.491 | 
CC(C)n1ccc2cc(N3Cc4ccc(OC(F)F)cc4C3=O)ccc21 [Example 121259] | 32 | 1.03 |  | 1.166 | 
CC(=O)Nc1ccc2c(c1)C(=O)N(c1ccc3c(ccn3C)c1)C2 [Example 122435] | 1290 | 1.98 | 143 | 1.412 | 
CC(C)n1ccc2cc(N3Cc4ccc(Br)cc4C3=O)ccc21 [Example 125270] |  | 1.19 | 16 | 1.446 | 
COc1ccc2c(c1)C(=O)N(c1ccc3[nH]ncc3c1)C2 [Example 120601] | 15600 | 1.65 |  | 1.059 | 
COc1ccc2c(c1)C(=O)N(c1ccc3c(ccn3C(C)C)c1)C2 [Example 119518] | 2800 | 1.2 | 71 | 1.617 | 

Structure (SMILES) | EC50 [1] [nM] | maximal fold induction [1] | EC50 [2] [nM] | Fold Increase [2] | melting point [°C]
COc1ccc2c(c1)C(=O)N(c1ccc3c(c1)OCCO3)C2 [Example 116239] | 421 | 2.02 | 20 | 1.228 | 
COCn1ccc2cc(N3Cc4ccc(OC)cc4C3=O)ccc21 [Example 119658] | 6030 | 1.19 | 59 | 1.42 | 
COc1ccc2c(c1)C(=O)N(c1ccc3c(c1)OC(C)(C)O3)C2 [Example 116566] | 4180 | 1.36 | 9 | 1.308 | 
COc1ccc2c(c1)C(=O)N(c1ccc3c(cnn3C)c1)C2 [Example 120600] | 4890 | 1.83 | 59 | 1.312 | 
COCCn1ccc2cc(N3Cc4ccc(OC)cc4C3=O)ccc21 [Example 119659] | 752 | 1.38 | 68 | 1.405 | 
Cc1cc2cc(N3Cc4ccc(Br)cc4C3=O)ccc2n1C [Example 122818] | 12800 | 1.81 | 207 | 1.551 | 
Cn1ccc2cc(N3Cc4cc5c(cc4C3=O)OCCO5)ccc21 [Example 118275] | 2090 | 1.28 | 14 | 1.484 | 
COc1ccc2c(c1)C(=O)N(c1ccc3sc(C)cc3c1)C2 [Example 122685] | 667 | 1.87 | 24 | 1.251 | 
COc1ccc2c(c1)C(=O)N(c1ccc3nccn3c1)C2 [Example 120955] | 14100 | 1.66 | 1590 | 1.265 | 
Cc1cc2cc(N3Cc4ccc(OC(C)C)cc4C3=O)ccc2n1C [Example 123934] | 97700 | 1.3 | 63 | 1.554 | 
COc1ccc2c(c1)C(=O)N(c1ccc3c(c1)CC(=O)N3)C2 [Example 121077] |  |  |  | 1.107 | 
Cc1ccc2c(c1)C(=O)N(c1ccc3ccsc3c1)C2 [Example 122555] |  |  | 87 | 1.509 | 
CC(C)C(=O)Nc1ccc2c(c1)C(=O)N(c1ccc3ccn(C)c3c1)C2 [Example 124776] |  |  |  | 2.069 | 
COc1ccc2c(c1)C(=O)N(c1ccc3ccn(C)c3c1)C2 [Example 118561] |  |  | 143 | 1.74 | 
COc1ccc2c(c1)C(=O)N(c1ccc3c(c1)CCN3C)C2 [Example 122314] |  |  |  | 1.026 | 
CN1CCN(c2ccc3c(c2)C(=O)N(c2ccc4ccn(C)c4c2)C3)CC1 [Example 124649] |  |  |  | 1.119 | 
Cc1cc2cc(N3Cc4ccc(S(C)(=O)=O)cc4C3=O)ccc2n1C [Example 124166] |  |  |  | 1.227 | 
CC(=O)Nc1ccc2c(c1)C(=O)N(c1ccc3c(c1)cc(C)n3C(C)C)C2 [Example 125822] |  |  |  | 1.329 | 
Cc1cc2ccc(N3Cc4ccc(OC(C)C)cc4C3=O)cc2n1C [Example 125098] |  |  | 134 | 1.251 | 

Structure (SMILES) | EC50 [1] [nM] | maximal fold induction [1] | EC50 [2] [nM] | Fold Increase [2] | melting point [°C]
O=C1c2ccccc2CN1c1ccc2c(c1)OCCO2 [Example 116069] | 2440 | 1.97 | 95 | 1.348 | 
CCOc1ccc2c(c1)C(=O)N(c1ccc3cc(C)n(C)c3c1)C2 [Example 124983] |  |  |  | 1.305 | 
Cn1ccc2ccc(N3Cc4ccc(S(C)(=O)=O)cc4C3=O)cc21 [Example 124168] |  |  |  | 1.462 | 
CCc1ccc2c(c1)C(=O)N(c1ccc3c(ccn3C)c1)C2 [Example 121793] |  |  | 85 | 1.529 | 
CCOc1ccc2c(c1)C(=O)N(c1ccc3c(c1)cc(C)n3C)C2 [Example 123328] |  |  | 444 | 1.316 | 
Cn1ccc2ccc(N3Cc4c(Br)cccc4C3=O)cc21 [Example 120290] |  |  | 609 | 1.386 | 
COc1ccc2c(c1)C(=O)N(c1ccc3cnn(C)c3c1)C2 [Example 120604] | 7910 | 1.65 | 415 | 1.441 | 
COc1ccc2c(c1)C(=O)N(c1ccc3nc(N(C)C)ccc3c1)C2 [Example 123332] |  |  | 207 | 1.272 | 
COc1ccc2c(c1)C(=O)N(c1ccc3cc(C)[nH]c3c1)C2 [Example 125097] |  |  | 50 | 1.347 | 
Cn1ccc2cc(N3Cc4ccc(OC(F)(F)C(F)Cl)cc4C3=O)ccc21 (centres unmarked) [Example 122180] |  |  | 92 | 1.64 | 
O=C1c2ccccc2CN1c1ccc2c(c1)OC(F)(F)O2 [Example 116485] |  |  | 2240 | 1.202 | 
Cc1cc2cc(N3Cc4ccc(N5CCCC5)cc4C3=O)ccc2n1C [Example 123330] |  | 1.4 |  | 1.113 | 
Cn1ccc2cc(N3Cc4ccc(NS(C)(=O)=O)cc4C3=O)ccc21 [Example 124980] |  |  |  | 1.534 | 
COc1ccc2c(c1)C(=O)N(c1ccc3nc(C)ncc3c1)C2 [Example 121924] | 2650 | 1.66 | 1360 | 1.489 | 
COc1ccc2c(c1)C(=O)N(c1ccc3c(c1)cc1n3CCC1)C2 [Example 124651] |  |  | 116 | 1.452 | 
Cn1ccc2cc(N3Cc4ccc(Cl)cc4C3=O)ccc21 [Example 120599] | 1890 | 1.88 | 61 | 1.407 | 
CCOc1ccc2c(c1)C(=O)N(c1ccc3ccn(C)c3c1)C2 [Example 124167] |  |  | 69 | 1.759 | 
CC(C)Oc1ccc2c(c1)C(=O)N(c1ccc3c(ccn3C)c1)C2 [Example 121923] |  |  |  | 1.194 | 

Source: patent publication US20100267712A1, “ISOINDOLINE COMPOUNDS FOR THE TREATMENT OF SPINAL MUSCULAR ATROPHY AND OTHER USES” (The United States of America, as represented by the …, priority 2007, published 2010)
